Assay: in vitro
Conditions: human, hela cells, % viability

Compound	viability at 28.5 h, 10 µM [%]
COc1ccc2[nH]cc([C@@H]3CCC[C@H](NC(=O)C4CCCO4)C3)c2c1 (stereo partly drawn) [CBK284699]	105
C#C[C@H]1C[N@@]2CC[C@H]1C[C@@H]2CNC(=O)Nc1cccc(C#N)c1 [CBK288754]	97.2
CC(NC(=O)CCC1CCCC1)c1nc(-c2ccncc2)cs1 (stereo not drawn) [CBK305819]	86.9
COc1cc(/C=C2/C(=O)N(c3ccc(Cl)c(C(=O)O)c3)N=C2C)ccc1Oc1nc2c(c(=O)n(C)c(=O)n2C)n1C [CBK262962]	91.1
COCC(C)N(C)S(=O)(=O)c1ccc(Cl)nc1 (stereo not drawn) [CBK304813]	95.2
c1cncc(-c2nnc([C@H]3CCN(C4CCOCC4)C3)o2)c1 [CBK289398]	93.5
COc1ccc(-c2noc(CN(C)C(=O)c3cccs3)n2)cc1 [CBK270286]	89.6
CC(C)Cn1cnc(S(=O)(=O)N2CCC(OCc3ccncc3)C2)c1 (stereo not drawn) [CBK305456]	105
COc1ccc(CN2CCC(O)CC2)c(OC)c1 [CBK261522]	95.9
COCCCN1C(=O)C(O)=C(C(=O)c2ccc(C)o2)C1c1ccc(OC)cc1 (stereo not drawn) [CBK264863]	103
O=C(NC(C(=O)N/N=C/c1ccc(O)cc1)c1n[nH]c(=O)c2ccccc12)c1ccccc1 (stereo not drawn) [CBK262839]	116
Cc1nnc(SCC(=O)n2c3c(c4ccccc42)CCCC3)n1C [CBK268351]	111
Cc1nnc2c(=O)n(CC(=O)N3CCN(C(C)C)CC3)c3cccnc3n12 [CBK288601]	94.3
COc1ccc([C@H]2CN(C(=O)c3ccccc3)[C@@H]3CCN(Cc4cccc(F)c4)C[C@H]23)cc1 [CBK285584]	98.9
COc1ccc(CCN2C(=O)c3ccccc3C2(O)c2ncc[nH]2)cc1OC (stereo not drawn) [CBK262717]	103
Cc1ccc(NC(=O)c2cc(N3C(=O)c4ccc(C(=O)O)cc4C3=O)ccc2N2CCCCC2)cc1 [CBK265274]	99.9
CCCCC(Sc1ccc2nnc(-c3ccccn3)n2n1)C(=O)O (stereo not drawn) [CBK287622]	112

Compound	viability at 28.5 h, 10 µM [%]
CC(Sc1nnc(-c2ccc(Cl)cc2)n1CC(=O)O)C(=O)Nc1ccnn1C(C)C (stereo not drawn) [CBK296970]	96.9
O=C1S/C(=C\c2ccc(O)c([N+](=O)[O-])c2)C(=O)N1Cc1ccc(F)cc1 [CBK102928]	94.9
CCc1c(C)nc2ccccc2c1[S+]([O-])CCC(=O)OC (stereo not drawn) [CBK155467T]	91.8
COc1cccc(/C=C2/NC(=O)N(c3cccc(Cl)c3)C2=O)c1OCc1cccc(C(=O)O)c1 [CBK265626]	109
Cc1cc(C(=O)O)ccc1-c1ccc(/C=C/c2[nH]c(=O)[nH]c(=O)c2[N+](=O)[O-])o1 [CBK266998]	97.3
OC1(c2cccnc2F)CCN(Cc2cc(F)cc(F)c2)CC1 [CBK285375]	81.5
Cc1ccc(-n2c3nc(=O)n(C)c(=O)c-3cc3ccccc32)cc1 [CBK288007]	103
O=CN1CCc2c([nH]c3ccccc23)C12CCN(CCCN1C(=O)C3CCCCC3C1=O)C2 (stereo not drawn) [CBK039592]	114
CCCC(=O)c1ccc(S(=O)(=O)N2CCCN(Cc3c(C)[nH]c(C(=O)OCC)c3C)CC2)cc1 [CBK062947]	101
COc1cc(C(=O)N/C(=C\c2ccc(O)cc2)C(=O)O)cc(OC)c1OC [CBK262607]	86.2
CC(=O)c1ccccc1-c1cnc(N(C)S(C)(=O)=O)c(C(=O)NCCc2ccccc2)c1 [CBK076516]	93.9
O=C(OCc1ccccc1)N1CCC2(CC1)CN(CCO)c1ccccc12 [CBK022627]	105
CSc1ccc(-c2cnc3nc(N)ccc3c2)cc1 [CBK081169]	85.2
COc1cccc(CN2CCN(CC(=O)N3CCCC3)[C@@H](C)C2)c1 [CBK286171]	78.1
O=C(Nc1cccc2[nH]ccc12)c1ccc(Br)cc1Cl [CBK159643]	78.7
Cc1nn(CC(=O)N(C)Cc2cnn(C)c2)c(=O)c2ccccc12 [CBK305701]	103

From paper PMC12040169 (PLOS Biology, 2025)
